Results taken from patent publication US12552812B2, “Pyridone multiple-membered ring derivatives and use thereof” (priority 2021, dated 2026).

How the values were obtained:
[1] = test system: Baloxavir-resistant A/PR/8/34 (H1N1) I38T influenza virus strain; format: cell-based
[2] = test system: Baloxavir-resistant A/PR/8/34 (H1N1) I38T virus strain; design: species or system BALB/c mice; details: mouse, in vivo

Row | SMILES | EC50 [1] | Survival rate (%) [2] | body weight of the mice [2]
1 | O=C1c2c(O)c(=O)ccn2N([C@H]2c3ccc(F)c(F)c3C[Se]c3cccnc32)[C@@H]2COCCN12 [Compound 3] | 57.5 nM | – | –
2 | COC(=O)OCOc1c2n(ccc1=O)N([C@H]1c3ccc(F)c(F)c3C[Se]c3cccnc31)[C@@H]1COCCN1C2=O [Compound 4] | – | 100% | hardly decreased
